Each structure is given as a SMILES string.

One experiment has as its system HARA. The experiment in a line: relative viability (nuclei count vs DMSO), 5 days (fraction); higher = more cells survive. The conditions noted are these: first compound 0.2 µM. The method in brief: (§1)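 Values are medians from duplicate plates. Each reflects relative viability, defined as the nuclei count of treated wells over that of vehicle wells. Lung cancer cell lines in 1536-well plates were pin-tool dosed one day after seeding with one drug alone or with a fixed anchor-drug dose plus five library-drug doses (not always all listed) in √10 steps, then fixed, stained and imaged at 4× after 5 days.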
On to `COCC1(CO)C(=O)C2CCN1CC2` (stereo unspecified) [PRIMA-1MET] + CCNC(=O)c1noc(-c2cc(C(C)C)c(O)cc2O)c1-c1ccc(CN2CCOCC2)cc1 [Luminespib] (partner 0.01 µM), for which the relative viability worked out at 0.619.

Regarding `COCC1(CO)C(=O)C2CCN1CC2` (stereo unspecified) [PRIMA-1MET] + CC(=O)c1c(C)c2cnc(Nc3ccc(N4CCNCC4)cn3)nc2n(C2CCCC2)c1=O [Palbociclib] (partner 0.5 µM), the relative viability is 0.252.

Compound `COCC1(CO)C(=O)C2CCN1CC2` (stereo unspecified) [PRIMA-1MET] + Cc1nc(Nc2ncc(C(=O)Nc3c(C)cccc3Cl)s2)cc(N2CCN(CCO)CC2)n1 [Dasatinib] (partner 0.075 µM) registered a relative viability of 0.303.

Staying with this experiment, now noted: first compound 0.6325 µM.
The compound `COCC1(CO)C(=O)C2CCN1CC2` (stereo unspecified) [PRIMA-1MET] + CS(=O)(=O)N1CCN(Cc2cc3nc(-c4cccc5[nH]ncc45)nc(N4CCOCC4)c3s2)CC1 [Pictilisib] (partner 1 µM) returned a relative viability of 0.417.

With `COCC1(CO)C(=O)C2CCN1CC2` (stereo unspecified) [PRIMA-1MET] + CCNC(=O)c1noc(-c2cc(C(C)C)c(O)cc2O)c1-c1ccc(CN2CCOCC2)cc1 [Luminespib] (partner 0.01 µM), the relative viability stood at 0.0534.

In turn, `COCC1(CO)C(=O)C2CCN1CC2` (stereo unspecified) [PRIMA-1MET] + CC(=O)c1c(C)c2cnc(Nc3ccc(N4CCNCC4)cn3)nc2n(C2CCCC2)c1=O [Palbociclib] (partner 0.5 µM) came in with a relative viability of 0.318.

`COCC1(CO)C(=O)C2CCN1CC2` (stereo unspecified) [PRIMA-1MET] + Cc1nc(Nc2ncc(C(=O)Nc3c(C)cccc3Cl)s2)cc(N2CCN(CCO)CC2)n1 [Dasatinib] (partner 0.075 µM) returned a relative viability of 0.257.

Staying with this experiment, now noted: first compound 6.325 µM.
For the compound `COCC1(CO)C(=O)C2CCN1CC2` (stereo unspecified) [PRIMA-1MET] + CS(=O)(=O)N1CCN(Cc2cc3nc(-c4cccc5[nH]ncc45)nc(N4CCOCC4)c3s2)CC1 [Pictilisib] (partner 1 µM), the relative viability worked out at 0.446.

The compound `COCC1(CO)C(=O)C2CCN1CC2` (stereo unspecified) [PRIMA-1MET] + CCNC(=O)c1noc(-c2cc(C(C)C)c(O)cc2O)c1-c1ccc(CN2CCOCC2)cc1 [Luminespib] (partner 0.01 µM) yielded a relative viability of 0.675.

Turning to `COCC1(CO)C(=O)C2CCN1CC2` (stereo unspecified) [PRIMA-1MET] + CC(=O)c1c(C)c2cnc(Nc3ccc(N4CCNCC4)cn3)nc2n(C2CCCC2)c1=O [Palbociclib] (partner 0.5 µM), the relative viability turned out to be 0.286.

`COCC1(CO)C(=O)C2CCN1CC2` (stereo unspecified) [PRIMA-1MET] + Cc1nc(Nc2ncc(C(=O)Nc3c(C)cccc3Cl)s2)cc(N2CCN(CCO)CC2)n1 [Dasatinib] (partner 0.075 µM) registered a relative viability of 0.294.

The experiment is the same for the next values; noted with them: first compound 20 µM.
In the case of `COCC1(CO)C(=O)C2CCN1CC2` (stereo unspecified) [PRIMA-1MET] + CS(=O)(=O)N1CCN(Cc2cc3nc(-c4cccc5[nH]ncc45)nc(N4CCOCC4)c3s2)CC1 [Pictilisib] (partner 1 µM), the relative viability stood at 0.403.

With `COCC1(CO)C(=O)C2CCN1CC2` (stereo unspecified) [PRIMA-1MET] + CCNC(=O)c1noc(-c2cc(C(C)C)c(O)cc2O)c1-c1ccc(CN2CCOCC2)cc1 [Luminespib] (partner 0.01 µM), the relative viability was 0.654.

For the compound `COCC1(CO)C(=O)C2CCN1CC2` (stereo unspecified) [PRIMA-1MET] + CC(=O)c1c(C)c2cnc(Nc3ccc(N4CCNCC4)cn3)nc2n(C2CCCC2)c1=O [Palbociclib] (partner 0.5 µM), the relative viability was determined as 0.261.

`COCC1(CO)C(=O)C2CCN1CC2` (stereo unspecified) [PRIMA-1MET] + Cc1nc(Nc2ncc(C(=O)Nc3c(C)cccc3Cl)s2)cc(N2CCN(CCO)CC2)n1 [Dasatinib] (partner 0.075 µM): the relative viability came out at 0.252.

The next experiment relates to NCI-H661. The description is as above. The note with it: first compound 0.2 µM. The method in brief: as §1
As for `COCC1(CO)C(=O)C2CCN1CC2` (stereo unspecified) [PRIMA-1MET] + CS(=O)(=O)N1CCN(Cc2cc3nc(-c4cccc5[nH]ncc45)nc(N4CCOCC4)c3s2)CC1 [Pictilisib] (partner 1 µM), the relative viability amounted to 0.396.

The compound `COCC1(CO)C(=O)C2CCN1CC2` (stereo unspecified) [PRIMA-1MET] + CCNC(=O)c1noc(-c2cc(C(C)C)c(O)cc2O)c1-c1ccc(CN2CCOCC2)cc1 [Luminespib] (partner 0.01 µM) yielded a relative viability of 1.02.

`COCC1(CO)C(=O)C2CCN1CC2` (stereo unspecified) [PRIMA-1MET] + CC(=O)c1c(C)c2cnc(Nc3ccc(N4CCNCC4)cn3)nc2n(C2CCCC2)c1=O [Palbociclib] (partner 0.5 µM) displayed a relative viability of 0.418.

Consider `COCC1(CO)C(=O)C2CCN1CC2` (stereo unspecified) [PRIMA-1MET] + Cc1nc(Nc2ncc(C(=O)Nc3c(C)cccc3Cl)s2)cc(N2CCN(CCO)CC2)n1 [Dasatinib] (partner 0.075 µM), for which the relative viability came to 0.858.

The experiment is the same for the next values; noted with them: first compound 0.6325 µM.
Compound `COCC1(CO)C(=O)C2CCN1CC2` (stereo unspecified) [PRIMA-1MET] + CS(=O)(=O)N1CCN(Cc2cc3nc(-c4cccc5[nH]ncc45)nc(N4CCOCC4)c3s2)CC1 [Pictilisib] (partner 1 µM) came in with a relative viability of 0.238.

Compound `COCC1(CO)C(=O)C2CCN1CC2` (stereo unspecified) [PRIMA-1MET] + CCNC(=O)c1noc(-c2cc(C(C)C)c(O)cc2O)c1-c1ccc(CN2CCOCC2)cc1 [Luminespib] (partner 0.01 µM) had a relative viability of 0.886.

Take `COCC1(CO)C(=O)C2CCN1CC2` (stereo unspecified) [PRIMA-1MET] + CC(=O)c1c(C)c2cnc(Nc3ccc(N4CCNCC4)cn3)nc2n(C2CCCC2)c1=O [Palbociclib] (partner 0.5 µM): the relative viability worked out at 0.391.

`COCC1(CO)C(=O)C2CCN1CC2` (stereo unspecified) [PRIMA-1MET] + Cc1nc(Nc2ncc(C(=O)Nc3c(C)cccc3Cl)s2)cc(N2CCN(CCO)CC2)n1 [Dasatinib] (partner 0.075 µM) had a relative viability of 0.733.

Still in this experiment, the particulars now being: first compound 2 µM.
The compound `COCC1(CO)C(=O)C2CCN1CC2` (stereo unspecified) [PRIMA-1MET] + CCNC(=O)c1noc(-c2cc(C(C)C)c(O)cc2O)c1-c1ccc(CN2CCOCC2)cc1 [Luminespib] (partner 0.01 µM) came in with a relative viability of 0.965.

`COCC1(CO)C(=O)C2CCN1CC2` (stereo unspecified) [PRIMA-1MET] + CC(=O)c1c(C)c2cnc(Nc3ccc(N4CCNCC4)cn3)nc2n(C2CCCC2)c1=O [Palbociclib] (partner 0.5 µM) came in with a relative viability of 0.414.

Compound `COCC1(CO)C(=O)C2CCN1CC2` (stereo unspecified) [PRIMA-1MET] + Cc1nc(Nc2ncc(C(=O)Nc3c(C)cccc3Cl)s2)cc(N2CCN(CCO)CC2)n1 [Dasatinib] (partner 0.075 µM) gave a relative viability of 0.89.
